Measurements reported in PMC10279527, “Structural basis of metabolite transport by the chloroplast outer envelope channel OEP21” (Nature Structural & Molecular Biology, 2023).
Values joined by “and” are separate entries in the source; they are usually repeats but may differ in a detail not shown here. Identical values can stand only once. Like-named read-outs stand apart in the source and are kept apart here.

How the values were obtained:
Set-up in all cases: species or system garden pea
[1] = target: T1, OEP21 wt (Pisum sativum, UniProt Q9SM57); assay: Fluorescence polarization (FP) binding of MANT-ATP (or MANT-GMPPNP) to OEP21-WT, also at varied NaCl and MgCl2
T1 construct: made in house
Experimental: FP assays were performed on a spectrofluorometer FP-8300 (Jasco) equipped with a water bath cooling system MCM-100 (Jasco). […] A buffer containing no EDTA was used when MgCl2 was present. […] KD values were derived by fitting the data to a one-site binding model. […] All FP experiments were performed as triplicates.

[2] = target: T2, OEP21 variants (single point mutations, ΔL5) (Pisum sativum, UniProt Q9SM57, R51A); assay: Fluorescence polarization binding of MANT-ATP to OEP21 variants; conditions: OEP21 variant R51A, unit inferred;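 also: KD obtained by fitting fluorescence polarization data to a one-site binding model, each experiment run in triplicate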
T2 construct: made in house; host or cells: Escherichia coli BL21(DE3) (described for OEP21)

[3] = target: T3, OEP21 variants (single point mutations, ΔL5) (Pisum sativum, UniProt Q9SM57, R174A); assay: as above; conditions: OEP21 variant R174A; for Kd: unit inferred
T3 construct: made in house; host or cells: Escherichia coli BL21(DE3) (described for OEP21)

[4] = target: T4, OEP21 variants (single point mutations, ΔL5) (Pisum sativum, UniProt Q9SM57, R157A); assay: as above; conditions: OEP21 variant R157A; for Kd: unit inferred
T4 construct: made in house; host or cells: Escherichia coli BL21(DE3) (described for OEP21)

[5] = target: T5, OEP21 variants (single point mutations, ΔL5) (Pisum sativum, UniProt Q9SM57, R84A); assay: as above; conditions: OEP21 variant R84A; for Kd: unit inferred
T5 construct: made in house; host or cells: Escherichia coli BL21(DE3) (described for OEP21)

[6] = target: T6, OEP21 variants (single point mutations, ΔL5) (Pisum sativum, UniProt Q9SM57, K90A); assay: as above; conditions: OEP21 variant K90A; for Kd: unit inferred
T6 construct: made in house; host or cells: Escherichia coli BL21(DE3) (described for OEP21)

[7] = target: T7, OEP21 variants (single point mutations, ΔL5) (Pisum sativum, UniProt Q9SM57, R140A); assay: as above; conditions: OEP21 variant R140A; for Kd: unit inferred
T7 construct: made in house; host or cells: Escherichia coli BL21(DE3) (described for OEP21)

[8] = target: T8, OEP21 variants (single point mutations, ΔL5) (Pisum sativum, UniProt Q9SM57, R33A); assay: as above; conditions: OEP21 variant R33A; for Kd: unit inferred
T8 construct: made in house; host or cells: Escherichia coli BL21(DE3) (described for OEP21)

[9] = target: T9, OEP21 variants (single point mutations, ΔL5) (Pisum sativum, UniProt Q9SM57, R142A); assay: as above; conditions: OEP21 variant R142A; for Kd: unit inferred
T9 construct: made in house; host or cells: Escherichia coli BL21(DE3) (described for OEP21)

[10] = target: T10, OEP21 variants (single point mutations, ΔL5) (Pisum sativum, UniProt Q9SM57, N164R/R66A); assay: as above; conditions: OEP21 variant R66A/N164R; for Kd: unit inferred
T10 construct: made in house; host or cells: Escherichia coli BL21(DE3) (described for OEP21)

[11] = target: T11, OEP21 variants (single point mutations, ΔL5) (Pisum sativum, UniProt Q9SM57, K19A); assay: as above; conditions: OEP21 variant K19A; for Kd: unit inferred
T11 construct: made in house; host or cells: Escherichia coli BL21(DE3) (described for OEP21)

[12] = individual determinations, read-out: KD1-KD3

T3 sequence (Q9SM57 whole entry L5del/R174A): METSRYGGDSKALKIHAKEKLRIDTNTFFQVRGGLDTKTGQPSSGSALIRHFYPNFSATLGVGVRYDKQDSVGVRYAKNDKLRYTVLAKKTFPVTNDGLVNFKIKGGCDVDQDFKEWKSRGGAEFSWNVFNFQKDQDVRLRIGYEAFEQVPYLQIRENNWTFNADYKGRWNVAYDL
T5 sequence (Q9SM57 whole entry L5del/R84A): as the sequence (Q9SM57 whole entry L5del/R174A) above, with R83A, A173R counted along it
T8 sequence (Q9SM57 whole entry L5del/R33A): as the sequence (Q9SM57 whole entry L5del/R174A) above, with R32A, A173R counted along it
T9 sequence (Q9SM57 whole entry L5del/R142A): as the sequence (Q9SM57 whole entry L5del/R174A) above, with R141A, A173R counted along it
T11 sequence (Q9SM57 whole entry L5del/K19A): as the sequence (Q9SM57 whole entry L5del/R174A) above, with K18A, A173R counted along it
T2 sequence (Q9SM57 whole entry L5del/R51A): as the sequence (Q9SM57 whole entry L5del/R174A) above, with R50A, A173R counted along it
T4 sequence (Q9SM57 whole entry L5del/R157A): as the sequence (Q9SM57 whole entry L5del/R174A) above, with R156A, A173R counted along it
T1 sequence (Q9SM57 whole entry): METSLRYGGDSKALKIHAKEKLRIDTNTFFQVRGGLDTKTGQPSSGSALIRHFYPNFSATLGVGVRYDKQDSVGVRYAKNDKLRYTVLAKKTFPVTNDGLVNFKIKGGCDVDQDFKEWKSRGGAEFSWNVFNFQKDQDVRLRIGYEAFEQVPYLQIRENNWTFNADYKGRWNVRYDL
T10 sequence (Q9SM57 whole entry L5del/R66A/N164R): as the sequence (Q9SM57 whole entry L5del/R174A) above, with R65A, N163R, A173R counted along it
T7 sequence (Q9SM57 whole entry L5del/R140A): as the sequence (Q9SM57 whole entry L5del/R174A) above, with R139A, A173R counted along it
T6 sequence (Q9SM57 whole entry L5del/K90A): as the sequence (Q9SM57 whole entry L5del/R174A) above, with K89A, A173R counted along it

## 2′-(or-3′)-O-(N-methylanthraniloyl) adenosine 5′-triphosphate [Mant-ATP]
[1]; MgCl2 0 mM, individual determinations, read-out: KD1-KD3
  Kd: 184 nM and 169 nM and 193 nM
[1]; MgCl2 0 mM, read-out: mean KD
  Kd: 182 nM
[1]; MgCl2 0 mM, relative to mean KD at 0 mM MgCl2
  rel KD1-KD3: 1.011 and 0.9286 and 1.06
[1]; MgCl2 1 mM, individual determinations, read-out: KD1-KD3
  Kd: 442 nM and 659 nM and 1020 nM
[1]; MgCl2 1 mM, read-out: mean KD
  Kd: 706 nM
[1]; MgCl2 10 mM, individual determinations, read-out: KD1-KD3
  Kd: 1170 nM and 2680 nM and 2400 nM
[1]; MgCl2 10 mM, read-out: mean KD
  Kd: 2080 nM
[1]; MgCl2 50 mM, individual determinations, read-out: KD1-KD3
  Kd: 6430 nM and 8880 nM and 8630 nM
[1]; MgCl2 50 mM, read-out: mean KD
  Kd: 7980 nM
[1]; MgCl2 50 mM, relative to mean KD at 0 mM MgCl2
  rel KD1-KD3: 35.3077 and 48.8077 and 47.4286
[1]; NaCl 0 M, individual determinations, nM printed only in the MgCl2 head (r11) of this sheet, read-out: KD1-KD3
  Kd: 184 nM and 169 nM and 193 nM
[1]; NaCl 0 M, read-out: mean KD
  Kd: 182 nM
[1]; NaCl 0 M, relative to mean KD at 0 M NaCl
  rel KD1-KD3: 1.011 and 0.9286 and 1.06
[1]; NaCl 0.5 M, individual determinations, nM, read-out: KD1-KD3
  Kd: 241 nM and 192 nM and 264 nM
[1]; NaCl 0.5 M, read-out: mean KD
  Kd: 232 nM
[1]; NaCl 0.5 M, relative to mean KD at 0 M NaCl
  rel KD1-KD3: 1.324 and 1.055 and 1.451
[1]; NaCl 1 M, individual determinations, nM, read-out: KD1-KD3
  Kd: 2600 nM and 2460 nM and 3130 nM
[1]; NaCl 1 M, read-out: mean KD
  Kd: 2730 nM
[1]; NaCl 1 M, relative to mean KD at 0 M NaCl
  rel KD1-KD3: 14.2912 and 13.5385 and 17.1923
[1]; NaCl 2 M, individual determinations, nM, read-out: KD1-KD3
  Kd: 18.4 µM and 21.4 µM (2×)
[1]; NaCl 2 M, read-out: mean KD
  Kd: 20400 nM
[1]; NaCl 2 M, relative to mean KD at 0 M NaCl
  rel KD1-KD3: 101.319 and 117.56 and 117.418
[1]; OEP21 wt, individual determinations, unit inferred, read-out: KD1-KD3
  Kd: 184 nM and 169 nM and 193 nM
[1]; OEP21 wt, relative to mean KD of wt
  rel KD1-KD3: 1.011 and 0.9286 and 1.06
[1]; OEP21 wt, unit inferred, read-out: mean KD
  Kd: 182 nM
[2]; [12]
  Kd: 142 nM and 101 nM and 206 nM
[2]; read-out: mean KD
  Kd: 150 nM
[3]; [12]
  Kd: 429 nM and 300 nM and 297 nM
[3]; relative to mean KD of wt
  rel KD1-KD3: 2.357 and 1.648 and 1.632
[3]; read-out: mean KD
  Kd: 342 nM
[4]; [12]
  Kd: 248 nM and 258 nM and 335 nM
[4]; relative to mean KD of wt
  rel KD1-KD3: 1.363 and 1.418 and 1.841
[4]; read-out: mean KD
  Kd: 280 nM
[5]; [12]
  Kd: 264 nM and 249 nM and 350 nM
[5]; relative to mean KD of wt
  rel KD1-KD3: 1.451 and 1.368 and 1.923
[5]; read-out: mean KD
  Kd: 288 nM
[6]; [12]
  Kd: 293 nM and 271 nM and 247 nM
[6]; relative to mean KD of wt
  rel KD1-KD3: 1.61 and 1.489 and 1.357
[6]; read-out: mean KD
  Kd: 270 nM
[7]; [12]
  Kd: 233 nM and 286 nM and 307 nM
[7]; relative to mean KD of wt
  rel KD1-KD3: 1.28 and 1.571 and 1.687
[7]; read-out: mean KD
  Kd: 275 nM
[8]; [12]
  Kd: 142 nM and 125 nM and 126 nM
[8]; relative to mean KD of wt
  rel KD1-KD3: 0.7802 and 0.6868 and 0.6923
[8]; read-out: mean KD
  Kd: 131 nM
[9]; [12]
  Kd: 270 nM and 331 nM and 267 nM
[9]; relative to mean KD of wt
  rel KD1-KD3: 1.484 and 1.819 and 1.467
[9]; read-out: mean KD
  Kd: 289 nM
[10]; [12]
  Kd: 172 nM and 184 nM and 211 nM
[10]; relative to mean KD of wt
  rel KD1-KD3: 1.011 and 1.159
[10]; read-out: mean KD
  Kd: 189 nM
[11]; [12]
  Kd: 221 nM and 259 nM and 267 nM
[11]; relative to mean KD of wt
  rel KD1-KD3: 1.214 and 1.423 and 1.467
[11]; read-out: mean KD
  Kd: 249 nM
